This passage reports relative cell growth results from the supplement of paper PMC10721915.

± gives the standard deviation of the averaged measurements.

Compound in this experiment: COc1ccc([C@@H](O)c2cc(-c3ncnc4cc(N5CCOCC5)ccc34)c(F)cc2Cl)nn1 [peposertib]
As to the kind of experiment: relative cell growth vs untreated control (GI, NCI-DTP normalisation with time-zero) (fraction of control growth); higher = more growth / less inhibition. The conditions noted are these: treatment time: 120 h. The protocol:
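Cancer cell lines were treated with peposertib (DNA-PK inhibitor) combined with gamma ionizing radiation (0, 2, 3 or 6 Gy) for 120 h, starting 48 h after seeding. Read-out was sulforhodamine B total-protein staining, normalised to untreated control and time-zero wells (NCI-DTP GI convention).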

The mark [1] stands for this setting: peposertib concentration 0.00488 µM, gamma irradiation dose (Gy): 0.
The mark [2] stands for this setting: peposertib concentration 0.0195 µM, gamma irradiation dose (Gy): 0.
Where [3] appears, read: peposertib concentration 0.0781 µM, gamma irradiation dose (Gy): 0.
The mark [4] stands for this setting: peposertib concentration 0.313 µM, gamma irradiation dose (Gy): 0.
Where [5] appears, read: peposertib concentration 1.25 µM, gamma irradiation dose (Gy): 0.
Setting [6] is: peposertib concentration 5 µM, gamma irradiation dose (Gy): 0.

As for SUDHL6, the relative cell growth was 0.943 under setting [1]; 0.915 under setting [2]; 0.816 under setting [3]; 0.254 under setting [4]; -0.0283 under setting [5]; -0.0413 under setting [6].
Take SUDHL10: the relative cell growth is, setting by setting: under setting [1], 1.01; under setting [2], 1.01; under setting [3], 1.02; under setting [4], 1.12; under setting [5], 1.12; under setting [6], 0.345.
Consider SW620, for which the relative cell growth was 1.03 ± 0.033 under setting [1]; 0.3 (peposertib concentration 0.00488 µM, gamma irradiation dose (Gy): 3); 1.01 ± 0.048 under setting [2]; 0.245 (peposertib concentration 0.0195 µM, gamma irradiation dose (Gy): 3); 0.992 ± 0.054 under setting [3]; 0.131 (peposertib concentration 0.0781 µM, gamma irradiation dose (Gy): 3). For the same test system, the relative cell growth by setting is: under setting [4], 0.94 ± 0.046; (peposertib concentration 0.313 µM, gamma irradiation dose (Gy): 3) 0.044; under setting [5], 0.833 ± 0.15; (peposertib concentration 1.25 µM, gamma irradiation dose (Gy): 3) 0.0135; under setting [6], 0.675 ± 0.2; (peposertib concentration 5 µM, gamma irradiation dose (Gy): 3) 0.0174.
In the case of T24, the relative cell growth by setting is: under setting [1], 1.01; under setting [2], 0.992; under setting [3], 0.979; under setting [4], 0.927; under setting [5], 0.838; under setting [6], 0.748.
For TE671, the relative cell growth under setting [1] came to 0.999; the relative cell growth under setting [2] was determined as 0.999; the relative cell growth under setting [3] stood at 0.989; the relative cell growth under setting [4] amounted to 0.929; the relative cell growth under setting [5] is 0.736; the relative cell growth under setting [6] is 0.243.
Regarding THP1, the relative cell growth was 0.988 under setting [1]; 0.968 under setting [2]; 0.887 under setting [3]; 0.721 under setting [4]; 0.436 under setting [5]; 0.148 under setting [6].
With U2OS, the relative cell growth turned out to be 1.05 under setting [1]; 1.04 under setting [2]; 1 under setting [3]; 0.966 under setting [4]; 0.815 under setting [5]; 0.529 under setting [6].
For the test system U87MG, the relative cell growth was 1.23 under setting [1]; 1.06 under setting [2]; 1.02 under setting [3]; 0.733 under setting [4]; 0.257 under setting [5]; 0.116 under setting [6].
Consider UMUC3, for which the relative cell growth worked out at 1.06 under setting [1]; 1.06 under setting [2]; 0.997 under setting [3]; 0.932 under setting [4]; 0.819 under setting [5]; 0.5 under setting [6].
Consider WSUNHL, for which the relative cell growth is 1.07 under setting [1]; 1.08 under setting [2]; 0.713 under setting [3]; 0.513 under setting [4]; 0.0836 under setting [5]; -0.0127 under setting [6].
